Source: paper PMC5218480 (PLoS ONE, 2017)

Test system: MV-4-11 cells
Test: Gene expression microarray analysis (Affymetrix PrimeView) and GSEA
Format: cell-based, human
Set-up: RFU PODN (11730768_x_at) / Fold change /veh PODN (11730768_x_at) / RFU LINC00158 (11744669_a_at) / Fold change /veh LINC00158 (11744669_a_at) / RFU DUSP10 (11751237_a_at) / Fold change /veh DUSP10 (11751237_a_at) / RFU ID3 (11757404_x_at) / Fold change /veh ID3 (11757404_x_at) / RFU PLEKHG5 (11737974_s_at) / Fold change /veh PLEKHG5 (11737974_s_at) / RFU LRRC4B (11730491_at) / Fold change /veh LRRC4B (11730491_at) / RFU GIMAP4 (11747438_a_at) / Fold change /veh GIMAP4 (11747438_a_at) / RFU KRT8 (11758183_x_at) / Fold change /veh KRT8 (11758183_x_at) / RFU CNN1 (11734310_a_at) / Fold change /veh CNN1 (11734310_a_at) / RFU VPS37D (11726825_at) / Fold change /veh VPS37D (11726825_at) / RFU C10orf10 (11716522_x_at) / Fold change /veh C10orf10 (11716522_x_at) / RFU KIR2DL2 /// KIR2DL4 /// KIR2DL5A /// KIR2DL5B /// KIR2DS1 /// KIR2DS2 /// KIR2DS3 /// KIR2DS4 /// KIR3DL3 /// KIR3DL3 /// KIR3DS1 (11738374_at) / Fold change /veh KIR2DL2 /// KIR2DL4 /// KIR2DL5A /// KIR2DL5B /// KIR2DS1 /// KIR2DS2 /// KIR2DS3 /// KIR2DS4 /// KIR3DL3 /// KIR3DL3 /// KIR3DS1 (11738374_at) / RFU C1QL1 (11718748_at) / Fold change /veh C1QL1 (11718748_at) / RFU TMPRSS4 (11747572_a_at) / Fold change /veh TMPRSS4 (11747572_a_at) / RFU HAMP (11756126_x_at) / Fold change /veh HAMP (11756126_x_at) / RFU RNFT2 (11725882_a_at) / Fold change /veh RNFT2 (11725882_a_at) / RFU NR4A2 (11747474_a_at) / Fold change /veh NR4A2 (11747474_a_at) / RFU ABCC12 (11746883_a_at) / Fold change /veh ABCC12 (11746883_a_at) / RFU TMEM136 (11760407_x_at) / Fold change /veh TMEM136 (11760407_x_at) / RFU CLDN22 /// WWC2 (11732394_at) / Fold change /veh CLDN22 /// WWC2 (11732394_at) / RFU HLA-DPB1 (11760878_x_at) / Fold change /veh HLA-DPB1 (11760878_x_at) / RFU SPINT1 (11716480_a_at) / Fold change /veh SPINT1 (11716480_a_at) / RFU GAP43 (11754022_s_at) / Fold change /veh GAP43 (11754022_s_at) / RFU A4GNT (11735810_at) / Fold change /veh A4GNT (11735810_at) / RFU PRB3 (11715151_x_at) / Fold change /veh PRB3 (11715151_x_at) / RFU TUBB4B (11761932_at) / Fold change /veh TUBB4B (11761932_at) / RFU CAPN14 (11732068_a_at) / Fold change /veh CAPN14 (11732068_a_at) / RFU TMCC2 (11721928_a_at) / Fold change /veh TMCC2 (11721928_a_at) / RFU IRGQ (11745062_a_at) / Fold change /veh IRGQ (11745062_a_at) / RFU FAM174B (11720279_a_at) / Fold change /veh FAM174B (11720279_a_at) / RFU TMPRSS4 (11748680_a_at) / Fold change /veh TMPRSS4 (11748680_a_at) / RFU FAM212B (11763350_a_at) / Fold change /veh FAM212B (11763350_a_at) / RFU PLEKHG5 (11743358_a_at) / Fold change /veh PLEKHG5 (11743358_a_at) / RFU ZSCAN30 (11745921_a_at) / Fold change /veh ZSCAN30 (11745921_a_at) / RFU CMKLR1 (11741424_a_at) / Fold change /veh CMKLR1 (11741424_a_at) / RFU LOC101060620 /// MAPK8IP1 (11723275_at) / Fold change /veh LOC101060620 /// MAPK8IP1 (11723275_at) / RFU SPTSSB (11747773_x_at) / Fold change /veh SPTSSB (11747773_x_at) / RFU PRSS12 (11739890_at) / Fold change /veh PRSS12 (11739890_at) / RFU BIN1 (11741810_x_at) / Fold change /veh BIN1 (11741810_x_at) / RFU WNT11 (11732464_a_at) / Fold change /veh WNT11 (11732464_a_at) / RFU C10orf10 (11716521_a_at) / Fold change /veh C10orf10 (11716521_a_at) / RFU C5orf56 (11738089_at) / Fold change /veh C5orf56 (11738089_at) / RFU CYB561 (11721691_x_at) / Fold change /veh CYB561 (11721691_x_at) / RFU ANKRD19P (11752326_a_at) / Fold change /veh ANKRD19P (11752326_a_at) / RFU OR2T12 /// OR2T33 /// OR2T8 (11738714_s_at) / Fold change /veh OR2T12 /// OR2T33 /// OR2T8 (11738714_s_at) / RFU VCAN (11748164_a_at) / Fold change /veh VCAN (11748164_a_at) / RFU JSRP1 (11732532_at) / Fold change /veh JSRP1 (11732532_at) / RFU KRTAP10-11 (11738290_x_at) / Fold change /veh KRTAP10-11 (11738290_x_at) / RFU MYO3A (11730013_a_at) / Fold change /veh MYO3A (11730013_a_at) / RFU EBF3 (11725865_a_at) / Fold change /veh EBF3 (11725865_a_at) / RFU CAMK2N1 (11719241_x_at) / Fold change /veh CAMK2N1 (11719241_x_at) / RFU C5orf56 (11738088_a_at) / Fold change /veh C5orf56 (11738088_a_at) / RFU OLFML3 (11715873_a_at) / Fold change /veh OLFML3 (11715873_a_at) / RFU LOC100653217 /// NTM (11731650_a_at) / Fold change /veh LOC100653217 /// NTM (11731650_a_at) / RFU MAPK11 (11762145_a_at) / Fold change /veh MAPK11 (11762145_a_at) / RFU FIZ1 (11724087_x_at) / Fold change /veh FIZ1 (11724087_x_at) / RFU OASL (11726364_x_at) / Fold change /veh OASL (11726364_x_at) / RFU SOX15 (11748057_x_at) / Fold change /veh SOX15 (11748057_x_at) / RFU CD79A (11719716_a_at) / Fold change /veh CD79A (11719716_a_at) / RFU HIST1H1D (11736915_at) / Fold change /veh HIST1H1D (11736915_at) / RFU CASKIN2 (11723855_a_at) / Fold change /veh CASKIN2 (11723855_a_at) / RFU LOC730098 (11760151_x_at) / Fold change /veh LOC730098 (11760151_x_at) / RFU OR4N2 (11742367_at) / Fold change /veh OR4N2 (11742367_at) / RFU PRRT2 (11749266_a_at) / Fold change /veh PRRT2 (11749266_a_at) / RFU SNX32 (11753110_a_at) / Fold change /veh SNX32 (11753110_a_at) / RFU CDHR5 (11726645_a_at) / Fold change /veh CDHR5 (11726645_a_at) / RFU RCAN1 (11760418_a_at) / Fold change /veh RCAN1 (11760418_a_at) / RFU FAM167A (11723789_a_at) / Fold change /veh FAM167A (11723789_a_at) / RFU FAM26E (11764081_at) / Fold change /veh FAM26E (11764081_at) / RFU ISYNA1 (11749810_s_at) / Fold change /veh ISYNA1 (11749810_s_at) / RFU ACY1 (11761880_at) / Fold change /veh ACY1 (11761880_at) / RFU 11764098_at / Fold change /veh 11764098_at / RFU SAMD14 (11745864_x_at) / Fold change /veh SAMD14 (11745864_x_at) / RFU NPB (11741838_a_at) / Fold change /veh NPB (11741838_a_at) / RFU TMPRSS6 (11731388_a_at) / Fold change /veh TMPRSS6 (11731388_a_at) / RFU KRTAP10-2 (11738614_at) / Fold change /veh KRTAP10-2 (11738614_at) / RFU ARHGAP8 /// PRR5-ARHGAP8 (11727945_x_at) / Fold change /veh ARHGAP8 /// PRR5-ARHGAP8 (11727945_x_at) / RFU KRTAP5-7 /// NADSYN1 (11734609_at) / Fold change /veh KRTAP5-7 /// NADSYN1 (11734609_at) / RFU RASL12 (11751679_a_at) / Fold change /veh RASL12 (11751679_a_at) / RFU CDKN2B (11736163_a_at) / Fold change /veh CDKN2B (11736163_a_at) / RFU PRF1 (11729649_at) / Fold change /veh PRF1 (11729649_at) / RFU, ZNF638 /// ZNF638-IT1 / Fold change vs veh, ZNF638 /// ZNF638-IT1 / RFU, PANK3 / Fold change vs veh, PANK3 / RFU, SH3YL1 / Fold change vs veh, SH3YL1 / RFU, ZEB2 / Fold change vs veh, ZEB2 / RFU, NRIP1 / Fold change vs veh, NRIP1 / RFU, PTTG1IP / Fold change vs veh, PTTG1IP / RFU, CAPN2 / Fold change vs veh, CAPN2 / RFU, MED14 / Fold change vs veh, MED14 / RFU, SNORA58 / Fold change vs veh, SNORA58 / RFU, C1orf63 / Fold change vs veh, C1orf63 / RFU, LRRFIP1 / Fold change vs veh, LRRFIP1 / RFU, NDUFAF7 / Fold change vs veh, NDUFAF7 / RFU, SLC12A2 / Fold change vs veh, SLC12A2 / RFU, IBTK / Fold change vs veh, IBTK / RFU, ESF1 / Fold change vs veh, ESF1 / Fold change vs veh, TMEM50B / RFU, TAOK1 / Fold change vs veh, TAOK1 / RFU, ACBD3 / Fold change vs veh, ACBD3 / RFU, TMA16 / Fold change vs veh, TMA16 / RFU, RWDD3 / Fold change vs veh, RWDD3 / RFU, BCAT1 / Fold change vs veh, BCAT1 / RFU, EDEM3 / Fold change vs veh, EDEM3 / RFU, TMEM33 / Fold change vs veh, TMEM33 / RFU, WDR75 / Fold change vs veh, WDR75 / RFU, AHCTF1 / Fold change vs veh, AHCTF1 / RFU, TFRC / Fold change vs veh, TFRC / RFU, ZDHHC17 / Fold change vs veh, ZDHHC17 / RFU, NOM1 / Fold change vs veh, NOM1 / RFU, ARL8B / Fold change vs veh, ARL8B / RFU, ZBTB11 / Fold change vs veh, ZBTB11 / RFU, TAMM41 / Fold change vs veh, TAMM41 / RFU, KIAA1704 /// LOC100996395 / Fold change vs veh, KIAA1704 /// LOC100996395 / RFU, ING1 / Fold change vs veh, ING1 / RFU, TRMT61B / Fold change vs veh, TRMT61B / RFU, FUBP3 / Fold change vs veh, FUBP3 / RFU, TP53 / Fold change vs veh, TP53 / RFU, TNKS2 / Fold change vs veh, TNKS2 / RFU, ZFP14 / Fold change vs veh, ZFP14 / RFU, ACTR2 / Fold change vs veh, ACTR2 / RFU, PPP3R1 / Fold change vs veh, PPP3R1 / RFU, PIK3R1 / Fold change vs veh, PIK3R1 / RFU, HNRNPA1 / Fold change vs veh, HNRNPA1 / RFU, RNF170 / Fold change vs veh, RNF170 / RFU, ZNF28 / Fold change vs veh, ZNF28 / RFU, RNGTT / Fold change vs veh, RNGTT / RFU, OGT / Fold change vs veh, OGT / RFU, BRD1 / Fold change vs veh, BRD1 / RFU, MARS / Fold change vs veh, MARS / RFU, ZNF655 / Fold change vs veh, ZNF655 / RFU, FAHD1 / Fold change vs veh, FAHD1 / RFU, BDP1 / Fold change vs veh, BDP1 / RFU, LRRCC1 / Fold change vs veh, LRRCC1 / RFU, ARID1A / Fold change vs veh, ARID1A / RFU, ZNF146 / Fold change vs veh, ZNF146 / RFU, ZNF330 / Fold change vs veh, ZNF330 / RFU, GPN3 / Fold change vs veh, GPN3 / RFU, C9orf123 / Fold change vs veh, C9orf123 / RFU, N4BP2L2 / Fold change vs veh, N4BP2L2 / RFU, ARFIP1 / Fold change vs veh, ARFIP1 / RFU, FAM179B / Fold change vs veh, FAM179B / RFU, BCL10 / Fold change vs veh, BCL10 / RFU, UHRF1BP1L / Fold change vs veh, UHRF1BP1L / RFU, BET1 / Fold change vs veh, BET1 / RFU, CNOT2 / Fold change vs veh, CNOT2 / RFU, ZNF268 / Fold change vs veh, ZNF268 / Fold change vs veh, ZNF507 / RFU, DGCR2 / Fold change vs veh, DGCR2 / RFU, WDSUB1 / Fold change vs veh, WDSUB1 / Fold change vs veh, HSP90B1 /// MIR3652 / RFU, ADSS / Fold change vs veh, ADSS / RFU, GK / Fold change vs veh, GK / RFU, ZNF148 / Fold change vs veh, ZNF148 / RFU, TAF9 / Fold change vs veh, TAF9 / RFU, SLC1A5 / Fold change vs veh, SLC1A5 / RFU, SLMO2 / Fold change vs veh, SLMO2 / RFU, ABCC4 / Fold change vs veh, ABCC4 / RFU, LOC101060439 /// RAP1B / Fold change vs veh, LOC101060439 /// RAP1B / RFU, RFX7 / Fold change vs veh, RFX7 / RFU, GTPBP10 / Fold change vs veh, GTPBP10 / RFU, CNEP1R1 / Fold change vs veh, CNEP1R1 / RFU, BIVM-ERCC5 /// ERCC5 / Fold change vs veh, BIVM-ERCC5 /// ERCC5 / RFU, ILF3 / Fold change vs veh, ILF3 / RFU 11762660_at / Fold change /veh 11762660_at / RFU VCAN (11757783_s_at) / Fold change /veh VCAN (11757783_s_at) / RFU DDX43 (11728927_at) / Fold change /veh DDX43 (11728927_at) / RFU KRT8 (11758188_x_at) / Fold change /veh KRT8 (11758188_x_at) / RFU NKD1 (11759106_at) / Fold change /veh NKD1 (11759106_at) / RFU SRD5A1 (11742802_a_at) / Fold change /veh SRD5A1 (11742802_a_at) / RFU TPSAB1 /// TPSB2 (11721975_s_at) / Fold change /veh TPSAB1 /// TPSB2 (11721975_s_at) / RFU GSTM3 (11746129_a_at) / Fold change /veh GSTM3 (11746129_a_at) / RFU IL23R (11737362_x_at) / Fold change /veh IL23R (11737362_x_at) / RFU TMEM51 (11727254_a_at) / Fold change /veh TMEM51 (11727254_a_at) / RFU PIWIL2 (11732686_x_at) / Fold change /veh PIWIL2 (11732686_x_at) / RFU ORM1 (11744905_x_at) / Fold change /veh ORM1 (11744905_x_at) / RFU CCDC152 (11743942_at) / Fold change /veh CCDC152 (11743942_at) / RFU ECM1 (11717891_a_at) / Fold change /veh ECM1 (11717891_a_at) / RFU IL23R (11748794_a_at) / Fold change /veh IL23R (11748794_a_at) / RFU TNFAIP8L3 (11732012_x_at) / Fold change /veh TNFAIP8L3 (11732012_x_at) / RFU MBOAT4 (11741988_at) / Fold change /veh MBOAT4 (11741988_at) / RFU 11764193_at / Fold change /veh 11764193_at / RFU TMEM53 (11763286_at) / Fold change /veh TMEM53 (11763286_at) / RFU MAGEB2 (11727129_at) / Fold change /veh MAGEB2 (11727129_at) / RFU TMEM200A (11744735_a_at) / Fold change /veh TMEM200A (11744735_a_at) / RFU CCDC152 (11751479_a_at) / Fold change /veh CCDC152 (11751479_a_at) / RFU FAM211A (11726209_a_at) / Fold change /veh FAM211A (11726209_a_at) / RFU RGS16 (11746705_a_at) / Fold change /veh RGS16 (11746705_a_at) / RFU VCAN (11755009_s_at) / Fold change /veh VCAN (11755009_s_at) / RFU RHOB (11743442_s_at) / Fold change /veh RHOB (11743442_s_at) / RFU RGS16 (11720943_a_at) / Fold change /veh RGS16 (11720943_a_at) / RFU RGS16 (11720944_at) / Fold change /veh RGS16 (11720944_at) / RFU, VPS4B / Fold change vs veh, VPS4B / RFU, CREB1 / Fold change vs veh, CREB1 / RFU, DNAJC13 / Fold change vs veh, DNAJC13 / RFU, GNAQ / Fold change vs veh, GNAQ / RFU, CDK5R1 / Fold change vs veh, CDK5R1 / RFU, ZRANB3 / Fold change vs veh, ZRANB3 / RFU, CUL4A / Fold change vs veh, CUL4A / RFU, CCNY / Fold change vs veh, CCNY / RFU, UFL1 / Fold change vs veh, UFL1 / RFU, COG3 / Fold change vs veh, COG3 / RFU, DIAPH2 / Fold change vs veh, DIAPH2 / RFU, SKA2 / Fold change vs veh, SKA2 / RFU, AFF3 / Fold change vs veh, AFF3 / RFU, LMF1 / Fold change vs veh, LMF1 / RFU, IPO11 / Fold change vs veh, IPO11 / RFU, DFFB / Fold change vs veh, DFFB / RFU, FOXP1 / Fold change vs veh, FOXP1 / RFU, CARD8 / Fold change vs veh, CARD8 / RFU, STRN3 / Fold change vs veh, STRN3 / RFU, ADK / Fold change vs veh, ADK / RFU, RASSF2 / Fold change vs veh, RASSF2 / RFU, WIPF1 / Fold change vs veh, WIPF1 / RFU, LARP1B / Fold change vs veh, LARP1B / RFU, RASA1 / Fold change vs veh, RASA1 / RFU, RB1 / Fold change vs veh, RB1 / RFU, PPFIA1 / Fold change vs veh, PPFIA1 / RFU, MAT2A / Fold change vs veh, MAT2A / RFU, CCT5 / Fold change vs veh, CCT5 / RFU, WDR92 / Fold change vs veh, WDR92 / RFU, CUX1 / Fold change vs veh, CUX1 / RFU, TTC7A / Fold change vs veh, TTC7A / RFU, TMEM135 / Fold change vs veh, TMEM135 / RFU, DEPTOR / Fold change vs veh, DEPTOR / RFU, CPM / Fold change vs veh, CPM / RFU, DNAJB6 / Fold change vs veh, DNAJB6 / RFU, CACNA2D3 / Fold change vs veh, CACNA2D3 / RFU, DTX4 / Fold change vs veh, DTX4 / RFU, TFCP2 / Fold change vs veh, TFCP2 / RFU, GMCL1 /// GMCL1P1 / Fold change vs veh, GMCL1 /// GMCL1P1 / RFU, AEBP2 / Fold change vs veh, AEBP2 / RFU, SNHG1 /// SNORD22 /// SNORD25 /// SNORD26 /// SNORD27 /// SNORD28 /// SNORD29 /// SNORD31 / Fold change vs veh, SNHG1 /// SNORD22 /// SNORD25 /// SNORD26 /// SNORD27 /// SNORD28 /// SNORD29 /// SNORD31 / Fold change (Aza/veh), C12orf56 (ProbeSet 11735607_a_at) / Fold change (ACY-1035/veh), C12orf56 (ProbeSet 11735607_a_at) / Fold change (Aza/veh), FGFR1OP (ProbeSet 11751329_s_at) / Fold change (ACY-1035/veh), FGFR1OP (ProbeSet 11751329_s_at) / Fold change (Aza/veh), VPS36 (ProbeSet 11739960_a_at) / Fold change (ACY-1035/veh), VPS36 (ProbeSet 11739960_a_at) / RFU SYPL1 (11715823_x_at) / Fold change /veh SYPL1 (11715823_x_at) / RFU IGFBP7 (11715501_s_at) / Fold change /veh IGFBP7 (11715501_s_at) / RFU REEP3 (11722064_at) / Fold change /veh REEP3 (11722064_at) / RFU IGLL1 (11728026_x_at) / Fold change /veh IGLL1 (11728026_x_at): dose or concentration left out as unconfirmed
Conditions: ProbeSet 11759094_a_at; LIST D

Compound: Nc1ncn([C@@H]2O[C@H](CO)[C@@H](O)[C@H]2O)c(=O)n1 [azacitidine]
- RFU, GNAQ: 421.57 RFU
